Entries after “also recorded” stand apart in the source; their conditions may differ. Where two headings read alike, the source gives them in different places.
Tests used:
[1] = tested on: rats with ischemic spasticity; type: in vivo, rat
[2] = tested on: in vitro cultured neurons; conditions: cited from earlier work
[3] = tested on: spastic patients; conditions: intrathecal treatment; cited from earlier work
[4] = tested on: rats with ischemic spasticity; conditions: intrathecal baclofen (1 μg elsewhere in the source); previous studies, same spinal ischemia-induced spasticity model; cited from earlier work
[5] = tested on: spasticity; conditions: cited from earlier work; for anti-spasticity effect in clinical studies: systemic (tiagabine: clinically-acceptable doses) or spinal administration
[6] = tested on: brain extracellular GABA; conditions: after systemic administration of 11.5-21 mg/kg; cited from earlier work
[7] = tested on: upper extremity motor function; assay: Side effects / upper extremity motor function in treated spastic rats; type: in vivo, rat
[8] = rats; cited from earlier work
[9] = tested on: rats with ischemic spasticity; assay: Hoffmann reflex (H-wave amplitude) during high frequency (20 Hz) stimulation; type: in vivo, rat
Protocol: H-reflex was recorded as previously described. Under ketamine anesthesia (100 mg/kg/hr, i.m.) the right hind limb of the animal was secured and a pair of stimulating needle electrodes was transcutaneously inserted into the surroundings of the tibial nerve. For recording, a pair of silver needle electrodes was placed into the interosseous muscles between the fourth and the fifth or the first and the second metatarsal right foot muscles. The tibial nerve was stimulated using square pulses with increasing stimulus intensity (0.1-10 mA in 0.5 mA increments, 0.1 Hz, 0.2 ms; WPI; Isostim A320) and responses were recorded with an A/C-coupled differential amplifier (Model DB4; DPI, Sarasota, Fla.). After the M-max and H-max responses were identified the intensity of stimulus which evoked H-max amplitudes were used in subsequent high frequency (20 Hz) stimulation experiment. In HIV1-CMVGAD65-GFP (n=6) or HIV1-CMV-GFP (n=6) lentivirus-injected animals a high frequency stimulation was performed in 5 min intervals for up to 90 min after tiagabine (40 mg/kg, i.p.) injection. Changes in H-wave amplitude were then compared between both lentivirus-injected groups.

[10] = human patients; cited from earlier work
[11] = tested on: lumbar gray matter extracellular GABA; assay: Spinal cord microdialysis, extracellular GABA by HPLC; type: in vivo, rat; conditions: tiagabine 40 mg/kg i.p., at 20-40 min
Protocol: Spinal cord microdialysis was performed in naive (n=6), spastic-non treated (n=6), spastic HIV1-CMV-GFP lentivirus-injected (n=6) and spastic HIV1-CMV-GAD65-GFP (n=6) lentivirus-injected animals. Rats were anesthetized with 2% isoflurane, previous laminectomy site (in lentivirus injected animals) re-exposed and concentric microdialysis probe (A-2-8-02; cut off: MW 50,000; EICOM, Japan) placed into central gray matter between L3-L6 spinal cord segments. Microdialysis fiber was perfused with artificial CSF at 2 μl/min and samples collected on dry ice. After 120 min washout samples were collected in 20 min intervals before and after tiagabine (40 mg/kg, i.p.) injections and analyzed for GABA using HPLC (HTEC-500; EICOM).

NCCCC(=O)O [GABA, gamma-aminobutryic acid]
anti-spasticity effect ([1]; GABA 1 mg intrathecal alone, measured for 60 min): No significant anti-spasticity effect
concentrations required to exert receptor-mediated effect [2]: 1 to 2 µmol

NCC(CC(=O)O)c1ccc(Cl)cc1 (stereo not shown) [baclofen]
H-reflex activity [3]: significant suppression of H-reflex activity
anti-spasticity effect [4]: potent anti-spasticity effect; also recorded: previously reported anti-spasticity effect
anti-spasticity effect in clinical studies [5]: most potent anti-spasticity pharmacological treatment
major side effects limiting chronic use ([5]; systemic or spinally-administered): general sedation and progressive tolerance development

Cc1ccsc1C(=CCCN1CCC[C@@H](C(=O)O)C1)c1sccc1C [tiagabine]
time of peak anti-spasticity effect after tiagabine administration ([1]; HIV1-CMV-GAD65-GFP-injected spastic rats): 25 min
tiagabine doses providing significant (p<0.01) anti-spasticity effect ([1]; dose response 1, 4, 10, 20, 40 mg/kg, at 15-25 min after injection, HIV1-CMV-GAD65-GFP-injected spastic rats): ≥ 4 mg/kg
anti-spasticity effect ([1]; systemic tiagabine in spastic rats injected spinally (L2-L5) with GAD65-encoding lentivirus (HIV1-CMV-GAD65-GFP)): potent, dose-dependent reduction in spasticity; also recorded: potent and tiagabine-dose-dependent alleviation of spasticity; also recorded: potent and significant anti-spasticity effect
anti-spasticity effect ([1]; tiagabine 40 mg/kg i.p. alone (monotherapy)): without anti-spasticity effect
anti-spasticity effect ([1]; tiagabine 40 mg/kg i.p. followed 15 min later by intrathecal GABA 1 mg): potent and highly significant anti-spasticity effect
anti-spasticity effect ([1]; tiagabine 40 mg/kg i.p. in spastic rats injected spinally with control HIV1-CMV-GFP lentivirus): no antispasicity effect; also recorded: without effect
increase in brain levels of extracellular GABA [6]: 2-3 fold
effect on upper limb motor function ([7]; after tiagabine in spastic rats with lumbar GAD65 lentivirus injection): No detectable effect
side effect ([7]; either treatment alone (GAD65-LVs injection only or tiagabine only)): nor had any detectable side effect
effect on upper extremity motor function ([7]; tiagabine 40 mg/kg i.p. + intrathecal GABA 1 mg): No suppressive effect
serum half-life [8]: 0.917 h
change in H-wave amplitude ([9]; tiagabine 40 mg/kg i.p., HIV1-CMV-GAD65-GFP-injected spastic rats, ketamine-sedated): significant (p<0.05) reduction
change in H-reflex amplitudes ([9]; tiagabine 40 mg/kg i.p., control HIV1-CMV-GFP-injected spastic rats, up to 90 min, ketamine-sedated): no change
H-wave amplitude returned back to baseline by ([9]; {}): ≤ 65 min
time window of significant H-wave amplitude reduction after tiagabine injection ([9]; {}): 20 to 45 min
serum half-life [10]: 5 to 8 h
anti-spasticity effect in clinical studies [5]: only a weak or no anti-spasticity effect
spinal extracellular GABA concentration, change after tiagabine ([11]; HIV1-CMV-GAD65-GFP lentivirus-injected spastic animals): significant (p<0.05) increase
spinal extracellular GABA concentration, change after tiagabine ([11]; naive animals): significant (p<0.05) increase

Reference: patent publication US20150343038A1, “METHOD AND COMPOSITION FOR TREATING SPASTICITY” (THE REGENTS OF THE UNIVERSITY OF CALIFORNIA, priority 2013, published 2015)
